Test results published in patent US20080181928A1, “COATINGS FOR IMPLANTABLE MEDICAL DEVICES FOR LIPOSOME DELIVERY” (MIV Therapeutics, Inc., priority 2006, published 2008).

Key:
[1] = system: THP-1 cells; assay: THP-1 cell growth in presence of ZA lipid coated stents or molecular ZA (Examples 6 and 7); format: cell-based; conditions: Homo sapiens, THP-1, 96 h, 4 days of culture
Protocol: To monitor cell growth in the presence of liposomes containing ZA, 5×10^5 THP-1 cells are plated into 24—well cluster plates (Corning Inc.) in complete RPMI-1640 medium at 1 mL volume. About 3-4 hours later, the lipid coated stents of Example 5 are added into the THP-1 cell culture (5×10^5 cells/mL). The cells in the presence of medium alone or treated with empty liposomes (no drug) served as a control. ZA in molecular form was added for comparison at a concentration of 5 and 1 μg/mL. After 4 days of culture, the cells in each culture were harvested and counted using a hemocytometer; viability was evaluated by trypan blue exclusion method.
The two sets of samples were placed in cell cultures containing THP-1 macrophage type cells. HAp coated stents impregnated with molecular ZA (configuration B) are placed in 2 ml PBS dissolution media and rotated at a speed of 20 rpm at 37.2° C. Samples are taken at various time intervals and analyzed using HPLC.

[2] = system: THP-1 (Human Monocytic Leukemia) cell culture; assay: THP-1 cell growth inhibition by ZA released from lipid bilayer stent coating (Example 16); format: cell-based; conditions: THP-1, 96 h, 4 days
Protocol: Hydroxyapatite coated stents were further coated with the lipid film in a manner similar to that described in Examples 12 and 13, except that the film contained 2 μg of zoledronic acid (ZA). The stents were added to THP-1 (Human Monocytic Leukemia) cell culture (5×10^5 cells/mL) and compared to ZA alone added at concentration of 5 and 1 μg/mL. After 4 days, the cells in each culture were harvested and counted.

SMILES: O=P(O)(O)C(O)(Cn1ccnc1)P(=O)(O)O [ZA, zoledronic acid]
- inhibition at 1 µg/mL ([1]; 1 μg/mL): 0.6%
- inhibition at 5 µg/mL ([1]; 5 μg/mL): 20%
- inhibition at 1 µg/mL ([2]; 1 μg/mL): 0.6%
- inhibition at 5 µg/mL ([2]; 5 μg/mL): 20%
